Earlier results in patent US20060110441A1, “Lyophilized liposome formulations and method” (priority 2004, published 2006).
In brackets after ≈: the same amount, converted by molar mass.

details: not given

Molecule | water solubility (in words) | aqueous solubility [µg/mL]
Nc1nc(Nc2ccc(S(N)(=O)=O)cc2)nn1C(=O)c1c(F)cccc1F [1-(2′,6′-difluorobenzoyl)-5-amino-3-(4′-aminosulfonylanilino)-1,2,4-triazole] | very low water solubility | –
COc1cc([C@@H]2c3cc4c(cc3[C@@H](O[C@@H]3O[C@@H]5CO[C@@H](C)O[C@H]5[C@H](O)[C@H]3O)[C@H]3COC(=O)[C@H]23)OCO4)cc(OC)c1O [etopside, reference compound] | – | 30 (≈ 51 µM)

details: hydrated lipid

Molecule | Tm, phase transition temperature [°C]
CCCCCCCC/C=C\CCCCCCCC(=O)OC[C@H](COP(=O)(O)OCCN)OC(=O)CCCCCCC/C=C\CCCCCCCC [DOPE, dioleoyl phosphoethanolamine] | −16
CCCCCCCC/C=C\CCCCCCCC(=O)OC[C@H](COP(=O)(O)OCC(O)CO)OC(=O)CCCCCCC/C=C\CCCCCCCC (some centres unmarked) [DOPG, dioleoyl phosphatidylglycerol] | −18
CCCCCCCCCCCCCCCCCC(=O)OC[C@H](COP(=O)([O-])OCC[N+](C)(C)C)OC(=O)CCCCCCCCCCCCCCCCC [DSPC, distearoyl phosphatidylcholine] | 55
CCCCCCCC/C=C\CCCCCCCC(=O)O[C@H](COC(=O)CCCCCCCCCCCCCCC)COP(=O)([O-])OCC[N+](C)(C)C [POPC, palmitoyloleoyl phosphatidylcholine] | −2
CCCCC/C=C\C/C=C\CCCCCCCC(=O)OC[C@H](COP(=O)(O)OCCN)OC(=O)CCCCCCC/C=C\C/C=C\CCCCC [dilinoleoyl phosphoethanolamine] | −40
CCCCCCCC/C=C\CCCCCCCC(=O)OC[C@H](COP(=O)(O)O)OC(=O)CCCCCCC/C=C\CCCCCCCC [dioleoyl PA] | −8
CCCCCCCC/C=C\CCCCCCCC(=O)OC[C@H](COP(=O)(O)OC[C@H](N)C(=O)O)OC(=O)CCCCCCC/C=C\CCCCCCCC [dioleoyl PS] | −11
CCCCCCCCCCCCCCCCCC(=O)OC[C@H](COP(=O)(O)O)OC(=O)CCCCCCCCCCCCCCCCC [distereoyl PA] | 75
CCCCCCCCCCCCCCCCCC(=O)OC[C@H](COP(=O)(O)OCC(O)CO)OC(=O)CCCCCCCCCCCCCCCCC (some centres unmarked) [distereoyl PG] | 55
CCCCCCCCCCCCCCCCCC(=O)OC[C@H](COP(=O)(O)OC[C@H](N)C(=O)O)OC(=O)CCCCCCCCCCCCCCCCC [distereoyl PS] | 68
CCCCCCCCCCCCCCCCCC(=O)OC[C@H](COP(=O)(O)OCCN)OC(=O)CCCCCCCCCCCCCCCCC [disteroyl phosphoethanolamine] | 74
CCCCCCCC/C=C\CCCCCCCC(=O)OC[C@H](COP(=O)([O-])OCC[N+](C)(C)C)OC(=O)CCCCCCCCCCCCCCC [oleoyl palmitoyl PC, oleolyl palmitoyl phosphatidylcholine] | −9
CCCCCCCC/C=C\CCCCCCCC(=O)OC[C@H](COP(=O)([O-])OCC[N+](C)(C)C)OC(=O)CCCCCCCCCCCCCCCCC [oleoyl stearyol PC, oleoyl stearoyl phosphatidylcholine] | 5 to 13
CCCCCCCC/C=C\CCCCCCCC(=O)O[C@H](COC(=O)CCCCCCCCCCCCCCCCC)COP(=O)([O-])OCC[N+](C)(C)C [stearyol oleoyl PC, stearyoyl oleoyl phosphatidylcholine] | 8 to 13
palmitoyl docosahexaenoyl PC | −27

same assay, conditions: hydrated lipid; listed as palmitoyl oleoyl PC

Molecule | Tm, phase transition temperature [°C]
CCCCCCCC/C=C\CCCCCCCC(=O)O[C@H](COC(=O)CCCCCCCCCCCCCCC)COP(=O)([O-])OCC[N+](C)(C)C [POPC, palmitoyloleoyl phosphatidylcholine] | −5 to 3

details: not given; remark: another data set of the same source

Molecule | LogP
Nc1nc(Nc2ccc(S(N)(=O)=O)cc2)nn1C(=O)c1c(F)cccc1F [1-(2′,6′-difluorobenzoyl)-5-amino-3-(4′-aminosulfonylanilino)-1,2,4-triazole] | around zero
C[C@H]1C[C@H]2[C@@H]3CCC4=CC(=O)C=C[C@]4(C)[C@@]3(F)[C@@H](O)C[C@]2(C)[C@@]1(O)C(=O)CO [betamethasone] | 1.9
CCC/C=C/C=C/C(=O)O[C@H]1/C(=C/C(=O)OC)C[C@H]2C[C@H]([C@@H](C)O)OC(=O)C[C@H](O)C[C@@H]3C[C@H](OC(C)=O)C(C)(C)[C@](O)(C[C@@H]4C/C(=C/C(=O)OC)C[C@H](/C=C/C(C)(C)[C@]1(O)O2)O4)O3 [bryostatin-1] | 5.4
CN(C)CC/C=C1/c2ccccc2Sc2ccc(Cl)cc21 [chlorprothixene] | 6.1
C[C@]12C[C@H](O)[C@H]3[C@@H](CCC4=CC(=O)CC[C@@]43C)[C@@H]1CC[C@@H]2C(=O)CO [corticosterone] | 1.8
CC(=O)O[C@@]12CO[C@@H]1C[C@H](O)[C@@]1(C)C(=O)[C@H](O)C3=C(C)[C@@H](OC(=O)[C@H](O)[C@@H](NC(=O)OC(C)(C)C)c4ccccc4)C[C@@](O)([C@@H](OC(=O)c4ccccc4)[C@H]21)C3(C)C [docetaxel] | 6.6
O=c1[nH]cc(F)c(=O)[nH]1 [fluorouracil] | −0.8
CC(=O)O[C@H]1C(=O)[C@@]2(C)[C@H]([C@H](OC(=O)c3ccccc3)[C@]3(O)C[C@H](OC(=O)[C@H](O)[C@@H](NC(=O)c4ccccc4)c4ccccc4)C(C)=C1C3(C)C)[C@]1(OC(C)=O)CO[C@@H]1C[C@@H]2O [paclitaxel] | 7.4
